In ChEMBL document CHEMBL3301472, “MMV Malaria Box HIV and cytotoxicity screening”:

Experiments:
[1] = MMV: MTT Cytotoxicity Assay Day 3 pi, U87-CD4-CCR5 cells, % cell death @ 5mM compound; assay type: toxicity, cell-based; settings: human, u87-cd4-ccr5, 5000 µM
[2] = MMV: MTT Cytotoxicity Assay Day 7 pi of Assay #10 (NO washout), U87-CD4-CCR5 cells, % cell death @ 5mM compound; assay type: toxicity, cell-based; settings: human, u87-cd4-ccr5, 5000 µM
[3] = tested on: Human immunodeficiency virus 1; experiment: MMV: HIV NL4-3 CXCR4-tropic replication-competent virus, NO washout, P24 ELISA Day 7 pi, U87-CD4-CXCR4, % inhibition at 5 mM compound; assay type: functional; design: dose or concentration left out as unconfirmed; settings: Human immunodeficiency virus 1, NL4-3, U87.CD4.CXCR4, 168 h
[4] = MMV: MTT Cytotoxicity Assay Day 7 pi of Assay #6 (compound washed out Day 1 pi), U87-CD4-CCR5 cells, % cell death @ 5mM compound; assay type: toxicity, cell-based; settings: human, u87-cd4-ccr5, 5000 µM
[5] = MMV: MTT Cytotoxicity Assay Day 7 pi of Assay #11 (NO washout), U87-CD4-CXCR4 cells, % cell death @ 5mM compound; assay type: toxicity, cell-based; settings: human, u87-cd4-cxcr4, 5000 µM
[6] = MMV: MTT Cytotoxicity Assay Day 3 pi, U87-CD4-CXCR4 cells, % cell death @ 5mM compound; assay type: toxicity, cell-based; settings: human, u87-cd4-cxcr4, 5000 µM
[7] = MMV: MTT Cytotoxicity Assay Day 7 pi of Assay #7 (compound washed out Day 1 pi), U87-CD4-CXCR4 cells, % cell death @ 5mM compound; assay type: toxicity, cell-based; settings: human, u87-cd4-cxcr4, 5000 µM
[8] = tested on: Human immunodeficiency virus 1; experiment: MMV: HIV NL4-3 CXCR4-tropic replication-competent virus, virus & compound washed out Day 1 pi, P24 ELISA Day 7 pi, U87-CD4-CXCR4, % inhibition at 5 mM compound; assay type: functional; design: dose or concentration left out as unconfirmed; settings: Human immunodeficiency virus 1, NL4-3, U87.CD4.CXCR4
[9] = tested on: Human immunodeficiency virus 1; experiment: MMV: HIV JRFL CCR5-tropic replication-competent virus, virus & compound washed out Day 1 pi, P24 ELISA Day 7 pi, U87-CD4-CCR5, % inhibition at 5 mM compound; assay type: functional; design: dose or concentration left out as unconfirmed; settings: Human immunodeficiency virus 1, JR-FL

## COc1cccc(Cn2c(Oc3ccccc3)nc3c2c(=O)n(C)c(=O)n3C)c1
[1]
  % Cell Death: -1
[2]
  % Cell Death: 39
[3]
  inhibition: 9%
[4]
  % Cell Death: 32
[5]
  % Cell Death: 32
[6]
  % Cell Death: 15
[7]
  % Cell Death: 3

## CSC1=NC(=Nc2c(C)cccc2C)C2(CCC(C(C)(C)C)CC2)N1c1ccc(Cl)cc1 (stereo not drawn)
[1]
  % Cell Death: 3
[2]
  % Cell Death: 12
[3]
  inhibition: 9%
[4]
  % Cell Death: 1
[5]
  % Cell Death: 0
[6]
  % Cell Death: 6
[7]
  % Cell Death: -6

## CC1(c2ccccc2)Nc2ccccc2-c2nc3ccccc3n21 (stereo not drawn)
[1]
  % Cell Death: 10
[2]
  % Cell Death: 29
[3]
  inhibition: 4%
[4]
  % Cell Death: -21
[5]
  % Cell Death: -43
[6]
  % Cell Death: 24
[7]
  % Cell Death: -19

## O=C(Nc1ccccc1O)c1ccc(Oc2cccc(C(=O)Nc3ccccc3O)c2)cc1
[1]
  % Cell Death: 43
[2]
  % Cell Death: 28
[4]
  % Cell Death: 17
[8]
  inhibition: 0%
[5]
  % Cell Death: -20
[6]
  % Cell Death: 4
[7]
  % Cell Death: -12

## O=C(O)C1Cc2c([nH]c3ccccc23)C(c2ccc(Cl)cc2Cl)N1 (stereo not drawn)
[1]
  % Cell Death: 10
[2]
  % Cell Death: 27
[4]
  % Cell Death: 15
[8]
  inhibition: 0%
[5]
  % Cell Death: -2
[6]
  % Cell Death: 11
[7]
  % Cell Death: -34

## COc1ccc(C(=O)Nc2ccc3nc(N4CCCCC4)cc(C)c3c2)cc1OC
[1]
  % Cell Death: 108
[2]
  % Cell Death: 91
[4]
  % Cell Death: 78
[8]
  inhibition: 5%
[5]
  % Cell Death: 106
[6]
  % Cell Death: 23
[7]
  % Cell Death: 16

## c1ccc(-c2ccc(-c3nc4ccccc4[nH]3)cc2)cc1
[1]
  % Cell Death: 12
[2]
  % Cell Death: 11
[4]
  % Cell Death: 16
[8]
  inhibition: -1%
[5]
  % Cell Death: 70
[6]
  % Cell Death: 6
[7]
  % Cell Death: -19

## COC(=O)c1ccc(C2C3=C(O)CC(c4ccc(F)cc4)CC3=Nc3ccccc3N2C(=O)c2ccccc2)cc1 (stereo not drawn)
[1]
  % Cell Death: -1
[2]
  % Cell Death: 18
[4]
  % Cell Death: 39
[8]
  inhibition: -1%
[5]
  % Cell Death: -29
[6]
  % Cell Death: 33
[7]
  % Cell Death: 12

## O=[N+]([O-])c1ccc(C=NNc2nc3ccccc3[nH]2)cc1
[1]
  % Cell Death: 32
[2]
  % Cell Death: 38
[4]
  % Cell Death: 28
[8]
  inhibition: 0%
[5]
  % Cell Death: 22
[6]
  % Cell Death: 6
[7]
  % Cell Death: -15

## O=C(O)C(=O)O.Oc1ccccc1CN1CCN(C(c2ccccc2)c2ccccc2)CC1
[1]
  % Cell Death: 4
[2]
  % Cell Death: 22
[3]
  inhibition: 0%
[4]
  % Cell Death: 2
[5]
  % Cell Death: 56
[6]
  % Cell Death: 12
[7]
  % Cell Death: 28

## O=C(CCc1ccco1)NC1CCN(CC2(c3ccc(Cl)cc3)CCC2)CC1
[1]
  % Cell Death: 18
[2]
  % Cell Death: 109
[4]
  % Cell Death: 2
[8]
  inhibition: 1%
[5]
  % Cell Death: 97
[6]
  % Cell Death: 38
[7]
  % Cell Death: 24

## CCN(CC)CCNc1ccnc2cc3ccccc3cc12.O=P(O)(O)O
[9]
  inhibition: 9%
[1]
  % Cell Death: 33
[2]
  % Cell Death: 10
[4]
  % Cell Death: -26
[8]
  inhibition: -1%
[5]
  % Cell Death: -36
[6]
  % Cell Death: 28
[7]
  % Cell Death: -15

## CCOc1cc(Cl)c(C(C)NC(=O)c2ccccc2)cc1OCC (stereo not drawn)
[9]
  inhibition: 0%
[1]
  % Cell Death: 28
[2]
  % Cell Death: 15
[4]
  % Cell Death: -4
[8]
  inhibition: 1%
[5]
  % Cell Death: 90
[6]
  % Cell Death: 34
[7]
  % Cell Death: -6

## COCCn1c(C)nc2ccccc2c1=O
[9]
  inhibition: 3%
[1]
  % Cell Death: 23
[2]
  % Cell Death: 14
[4]
  % Cell Death: -8
[8]
  inhibition: 2%
[5]
  % Cell Death: 32
[6]
  % Cell Death: 19
[7]
  % Cell Death: 11

## OC(Cn1nnc2ccccc21)Cn1c2ccc(Br)cc2c2cc(Br)ccc21 (stereo not drawn)
[9]
  inhibition: -2%
[1]
  % Cell Death: 15
[2]
  % Cell Death: 27
[4]
  % Cell Death: 2
[8]
  inhibition: 1%
[5]
  % Cell Death: 18
[6]
  % Cell Death: -29
[7]
  % Cell Death: 8

## CCCC(c1nnnn1C1CCCCC1)N1CCN(C(=O)c2ccco2)CC1.Cl (stereo not drawn)
[1]
  % Cell Death: -3
[2]
  % Cell Death: -2
[3]
  inhibition: 7%
[4]
  % Cell Death: -14
[5]
  % Cell Death: 34
[6]
  % Cell Death: 12
[7]
  % Cell Death: -21

## CC(C)(C)c1ccc(C(=O)Nc2c3c(nn2-c2cccc(Cl)c2)CSC3)cc1
[1]
  % Cell Death: 7
[2]
  % Cell Death: 7
[4]
  % Cell Death: 2
[8]
  inhibition: 7%
[5]
  % Cell Death: 1
[6]
  % Cell Death: -37
[7]
  % Cell Death: -2

## CCOc1cc2c(cc1OCC)C(c1cc(Cl)c(O)c(OCC)c1)NCC2 (stereo not drawn)
[1]
  % Cell Death: -45
[2]
  % Cell Death: 21
[4]
  % Cell Death: 8
[8]
  inhibition: 3%
[5]
  % Cell Death: 38
[6]
  % Cell Death: 15
[7]
  % Cell Death: -20

## O=C(Nc1nc(-c2ccccn2)cs1)c1ccccc1Br
[1]
  % Cell Death: -1
[2]
  % Cell Death: 118
[4]
  % Cell Death: -13
[8]
  inhibition: 4%
[5]
  % Cell Death: 85
[6]
  % Cell Death: 28
[7]
  % Cell Death: -6

## Cc1cccc(N2C(=O)C3C(C2=O)C2(c4ccccc4)C(=O)C3(c3ccccc3)C(c3ccc4c(c3)OCO4)=C2c2ccc3c(c2)OCO3)c1 (stereo not drawn)
[1]
  % Cell Death: 4
[2]
  % Cell Death: 0
[4]
  % Cell Death: 4
[8]
  inhibition: 3%
[5]
  % Cell Death: -20
[6]
  % Cell Death: 35
[7]
  % Cell Death: -2

## CCCc1c(C)nc2ccc(Br)cc2c1O
[1]
  % Cell Death: 4
[2]
  % Cell Death: 25
[4]
  % Cell Death: -7
[8]
  inhibition: 5%
[5]
  % Cell Death: 27
[6]
  % Cell Death: 29
[7]
  % Cell Death: 7

## COc1ccc(C2Sc3ccccc3N=C3C2=C(O)c2ccccc23)cc1 (stereo not drawn)
[9]
  inhibition: 7%
[1]
  % Cell Death: 0
[2]
  % Cell Death: 17
[4]
  % Cell Death: 7
[8]
  inhibition: 7%
[5]
  % Cell Death: 3
[6]
  % Cell Death: 10
[7]
  % Cell Death: -32

## CCCCCCC(O)(c1ccc(F)cc1)C(CN1CCOCC1)c1ccccc1.Cl (stereo not drawn)
[1]
  % Cell Death: 13
[2]
  % Cell Death: -2
[4]
  % Cell Death: 3
[8]
  inhibition: 8%
[5]
  % Cell Death: -35
[6]
  % Cell Death: 12
[7]
  % Cell Death: -17

## COc1ccc(NC(=O)C2c3ccccc3C(=O)N(CC(C)C)C2c2cccs2)cc1 (stereo not drawn)
[9]
  inhibition: 3%
[1]
  % Cell Death: 16
[2]
  % Cell Death: -9
[4]
  % Cell Death: -1
[8]
  inhibition: 6%
[5]
  % Cell Death: -27
[6]
  % Cell Death: 13
[7]
  % Cell Death: -38

## Cc1c(C)n(CC(O)CNC2CCCCC2C)c2ccccc12 (stereo not drawn)
[1]
  % Cell Death: -17
[2]
  % Cell Death: -14
[3]
  inhibition: 7%
[4]
  % Cell Death: -11
[5]
  % Cell Death: -68
[6]
  % Cell Death: 18
[7]
  % Cell Death: -17

## C=CCc1c(C)nc2ccccc2c1O
[1]
  % Cell Death: 4
[2]
  % Cell Death: 109
[4]
  % Cell Death: -8
[8]
  inhibition: 4%
[5]
  % Cell Death: 50
[6]
  % Cell Death: 36
[7]
  % Cell Death: 38
